Assay results taken from patent US20260167620A1, “MULTIFUNCTIONAL COMPOUND CAPABLE OF DEGRADING BTK KINASE, AND COMPOSITION AND USE” (HANGZHOU HEALZEN THERAPEUTICS CO., LTD., priority 2021, published 2026).

Target: T1, BTK (Homo sapiens, UniProt Q06187)
T1 construct: endogenous in cells; host or cells: Mino cells
Test: BTK degradation activity test in Mino cells (Westernblot or Elisa)
Assay type: cell-based
Conditions: 24-72 h incubation
Experimental: The Mino cell line cells are 0.5˜1 million/well in 6-well plates. The compounds are diluted to different concentrations, added to the plate, and after 24-72 h of incubation, the cells are collected. After the cells were lysed, the total protein concentration in each well was determined with a BCA kit. The amount of BTK is determined using the Westernblot or Elisa method.

T1 sequence (Q06187 whole entry): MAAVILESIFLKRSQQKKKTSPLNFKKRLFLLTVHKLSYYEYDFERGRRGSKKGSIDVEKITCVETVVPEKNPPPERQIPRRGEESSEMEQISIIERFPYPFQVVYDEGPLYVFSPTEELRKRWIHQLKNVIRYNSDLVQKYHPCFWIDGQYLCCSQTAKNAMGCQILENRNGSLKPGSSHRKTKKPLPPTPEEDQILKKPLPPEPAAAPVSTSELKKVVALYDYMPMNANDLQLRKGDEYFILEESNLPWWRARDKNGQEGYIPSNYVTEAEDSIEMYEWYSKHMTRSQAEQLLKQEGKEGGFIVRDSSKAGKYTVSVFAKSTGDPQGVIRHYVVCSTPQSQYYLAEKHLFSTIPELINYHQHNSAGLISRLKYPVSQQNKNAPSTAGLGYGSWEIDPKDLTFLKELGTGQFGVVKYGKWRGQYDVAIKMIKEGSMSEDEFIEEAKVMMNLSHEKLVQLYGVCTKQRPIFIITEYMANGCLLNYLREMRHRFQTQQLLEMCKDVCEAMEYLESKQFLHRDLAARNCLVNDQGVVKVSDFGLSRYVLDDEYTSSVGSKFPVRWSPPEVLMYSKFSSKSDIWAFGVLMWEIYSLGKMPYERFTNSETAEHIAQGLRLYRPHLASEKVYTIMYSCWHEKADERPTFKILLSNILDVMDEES

SMILES | DC50 [nM]
N#Cc1cccc(Nc2nnc(C(N)=O)c(Nc3ccc(C4CCN(CC5CCN(c6ccc7c(c6)C(=O)N(C6CCC(=O)NC6=O)C7=O)C5)CC4)cc3)n2)c1 (stereo not shown) [Compound 020, 3-((3-cyanophenyl)amino)-5-((4-(1-((1-(2-(2,6-dioxopiperidin-3-yl)-1,3-dioxoisoindolin-5-yl)pyrrolidin-3-yl)methyl)piperidin-4-yl)phenyl)amino)-1,2,4-triazine-6-carboxamide] | < 10
NC(=O)c1nnc(Nc2ccccn2)nc1Nc1ccc(C2CCN(CC3CCN(c4ccc5c(c4)C(=O)N(C4CCC(=O)NC4=O)C5=O)C3)CC2)cc1 (stereo not shown) [Compound 021, 5-((4-(1-((1-(2-(2,6-dioxopiperidin-3-yl)-1,3-dioxoisoindolin-5-yl)pyrrolidin-3-yl)methyl)piperidin-4-yl)phenyl)amino)-3-(pyridin-2-ylamino)-1,2,4-triazine-6-carboxamide] | < 10
NC(=O)c1nnc(N2CC[C@@H](O)C2)nc1Nc1ccc(C2CCN(CC3CCN(c4ccc5c(c4)C(=O)N(C4CCC(=O)NC4=O)C5=O)C3)CC2)cc1 (stereo partly drawn) [Compound 022, 5-((4-(1-((1-(2-(2,6-dioxopiperidin-3-yl)-1,3-dioxoisoindolin-5-yl)pyrrolidin-3-yl)methyl)piperidin-4-yl)phenyl)amino)-3-((R)-3-hydroxypyrrolidin-1-yl)-1,2,4-triazine-6-carboxamide] | < 10
NC(=O)c1nnc(-c2nccs2)nc1Nc1ccc(C2CCN(CC3CCN(c4ccc5c(c4)C(=O)N(C4CCC(=O)NC4=O)C5=O)C3)CC2)cc1 (stereo not shown) [Compound 024, 5-((4-(1-((1-(2-(2,6-dioxopiperidin-3-yl)-1,3-dioxoisoindolin-5-yl)pyrrolidin-3-yl)methyl)piperidin-4-yl)phenyl)amino)-3-(thiazol-2-yl)-1,2,4-triazine-6-carboxamide] | < 10
NC(=O)c1nnc(-c2ncc[nH]2)nc1Nc1ccc(C2CCN(CC3CCN(c4ccc5c(c4)C(=O)N(C4CCC(=O)NC4=O)C5=O)C3)CC2)cc1 (stereo not shown) [Compound 025, 5-((4-(1-((1-(2-(2,6-dioxopiperidin-3-yl)-1,3-dioxoisoindolin-5-yl)pyrrolidin-3-yl)methyl)piperidin-4-yl)phenyl)amino)-3-(1H-imidazol-2-yl)-1,2,4-triazine-6-carboxamide] | < 10
NC(=O)c1nnc(-c2cccnc2)nc1Nc1ccc(C2CCN(CC3CCN(c4ccc5c(c4)C(=O)N(C4CCC(=O)NC4=O)C5=O)C3)CC2)cc1 (stereo not shown) [Compound 026, 5-((4-(1-((1-(2-(2,6-dioxopiperidin-3-yl)-1,3-dioxoisoindolin-5-yl)pyrrolidin-3-yl)methyl)piperidin-4-yl)phenyl)amino)-3-(pyridin-3-yl)-1,2,4-triazine-6-carboxamide] | < 10
NC(=O)c1nnc(Oc2cccc(O)c2)nc1Nc1ccc(C2CCN(CC3CCN(c4ccc5c(c4)C(=O)N(C4CCC(=O)NC4=O)C5=O)C3)CC2)cc1 (stereo not shown) [Compound 027, 5-((4-(m-((1-(2-(2,6-dioxopiperidin-3-yl)-1,3-dioxoisoindolin-5-yl)pyrrolidin-3-yl)methyl)piperidin-4-yl)phenyl)amino)-3-(3-hydroxyphenoxy)-1,2,4-triazine-6-carboxamide] | < 10
NC(=O)c1nnc(Oc2cccc(F)c2F)nc1Nc1ccc(C2CCN(CC3CCN(c4ccc5c(c4)C(=O)N(C4CCC(=O)NC4=O)C5=O)C3)CC2)cc1 (stereo not shown) [Compound 028, 3-(2,3-difluorophenoxy)-5-((4-(1-((1-(2-(2,6-dioxopiperidin-3-yl)-1,3-dioxoisoindolin-5-yl)pyrrolidin-3-yl)methyl)piperidin-4-yl)phenyl)amino)-1,2,4-triazine-6-carboxamide] | < 10
NC(=O)c1nnc(N2CCC[C@@H](N)C2)nc1Nc1ccc(C2CCN(CC3CCN(c4ccc5c(c4)C(=O)N(C4CCC(=O)NC4=O)C5=O)C3)CC2)cc1 (stereo partly drawn) [Compound 029, 3-((R)-3-aminopiperidin-1-yl)-5-((4-(1-((1-(2-(2,6-dioxopiperidin-3-yl)-1,3-dioxoisoindolin-5-yl)pyrrolidin-3-yl)methyl)piperidin-4-yl)phenyl)amino)-1,2,4-triazine-6-carboxamide] | < 10
NC(=O)c1nnc(N[C@H]2CCCC[C@H]2N)nc1Nc1ccc(C2CCN(CC3CCN(c4ccc5c(c4)C(=O)N(C4CCC(=O)NC4=O)C5=O)C3)CC2)cc1 (stereo partly drawn) [Compound 030, 3-(((1S,2R)-2-aminocyclohexyl)amino)-5-((4-(1-((1-(2-(2,6-dioxopiperidin-3-yl)-1,3-dioxoisoindolin-5-yl)pyrrolidin-3-yl)methyl)piperidin-4-yl)phenyl)amino)-1,2,4-triazine-6-carboxamide] | < 10
NC(=O)c1nnc(N2CCNCC2)nc1Nc1ccc(C2CCN(CC3CCN(c4ccc5c(c4)C(=O)N(C4CCC(=O)NC4=O)C5=O)C3)CC2)cc1 (stereo not shown) [Compound 031, 5-((4-(1-((1-(2-(2,6-dioxopiperidin-3-yl)-1,3-dioxoisoindolin-5-yl)pyrrolidin-3-yl)methyl)piperidin-4-yl)phenyl)amino)-3-(piperazin-1-yl)-1,2,4-triazine-6-carboxamide] | < 10
NC(=O)c1cnc(N[C@H]2CCCC[C@H]2N)nc1Nc1ccc(C2CCN(CC3CCN(c4ccc5c(c4)C(=O)N(C4CCC(=O)NC4=O)C5=O)C3)CC2)cc1 (stereo partly drawn) [Compound 032, 2-(((1S,2R)-2-aminocyclohexyl)amino)-4-((4-(1-((1-(2-(2,6-dioxopiperidin-3-yl)-1,3-dioxoisoindolin-5-yl)pyrrolidin-3-yl)methyl)piperidin-4-yl)phenyl)amino) pyrimidine-5-carboxamide] | < 10
NC(=O)c1cnc(N2CCCCC2)nc1Nc1ccc(N2CCN(CC3CCN(c4ccc5c(c4)C(=O)N(C4CCC(=O)NC4=O)C5=O)C3)CC2)c(F)c1 (stereo not shown) [Compound 034, 4-((4-(4-((1-(2-(2,6-dioxopiperidin-3-yl)-1,3-dioxoisoindolin-5-yl)pyrrolidin-3-yl)methyl)piperazin-1-yl)-3-fluorophenyl)amino)-2-(piperidin-1-yl) pyrimidine-5-carboxamide] | < 10
NC(=O)c1cnc(N2CCC[C@@H](O)C2)nc1Nc1ccc(C2CCN(CC3CCN(c4ccc5c(c4)C(=O)N(C4CCC(=O)NC4=O)C5=O)C3)CC2)cc1 (stereo partly drawn) [Compound 035, 4-((4-(1-((1-(2-(2,6-dioxopiperidin-3-yl)-1,3-dioxoisoindolin-5-yl)pyrrolidin-3-yl)methyl)piperidin-4-yl)phenyl)amino)-2-((R)-3-hydroxypiperidin-1-yl) pyrimidine-5-carboxamide] | < 10
NC(=O)c1cnc(N2CCCCC2)nc1Nc1ccc(C2CCN(CC3CCN(c4ccc5c(c4)C(=O)N(C4CCC(=O)NC4=O)C5=O)C3)CC2)c(F)c1 (stereo not shown) [Compound 036, 4-((4-(1-((1-(2-(2,6-dioxopiperidin-3-yl)-1,3-dioxoisoindolin-5-yl)pyrrolidin-3-yl)methyl)piperidin-4-yl)-3-fluorophenyl)amino)-2-(piperidin-1-yl) pyrimidine-5-carboxamide] | < 10

Continued, values first:

DC50 [nM] | SMILES
< 10 | NC(=O)c1nnc(N2CCCCC2)nc1Nc1ccc(N2CCN(CC3CN(c4ccc5c(c4)C(=O)N(C4CCC(=O)NC4=O)C5=O)C3)CC2)cc1 (stereo not shown) [Compound 006, 5-((4-(4-((1-(2-(2,6-dioxopiperidin-3-yl)-1,3-dioxoisoindolin-5-yl)azetidin-3-yl)methyl)piperazin-1-yl)phenyl)amino)-3-(piperidin-1-yl)-1,2,4-triazine-6-carboxamide]
< 10 | NC(=O)c1nnc(N2CCCCC2)nc1Nc1ccc(C2CCN(CC3CN(c4ccc5c(c4)C(=O)N(C4CCC(=O)NC4=O)C5=O)C3)CC2)cc1 (stereo not shown) [Compound 008, 5-((4-(1-((1-(2-(2,6-dioxopiperidin-3-yl)-1,3-dioxoisoindolin-5-yl)azetidin-3-yl)methyl)piperidin-4-yl)phenyl)amino)-3-(piperidin-1-yl)-1,2,4-triazine-6-carboxamide]
< 10 | NC(=O)c1nnc(N2CCCCC2)nc1Nc1ccc(C2CCN(CC3CCN(c4ccc5c(c4)CN(C4CCC(=O)NC4=O)C5=O)C3)CC2)cc1 (stereo not shown) [Compound 009, 5-((4-(1-((1-(2-(2,6-dioxopiperidin-3-yl)-1-oxoisoindolin-5-yl)pyrrolidin-3-yl)methyl)piperidin-4-yl)phenyl)amino)-3-(piperidin-1-yl)-1,2,4-triazine-6-carboxamide]
< 10 | NC(=O)c1nnc(N2CCCCC2)nc1Nc1ccc(C2CCN(CC3CCN(c4cc5c(cc4F)C(=O)N(C4CCC(=O)NC4=O)C5)C3)CC2)cc1 (stereo not shown) [Compound 010, 5-((4-(1-((1-(2-(2,6-dioxopiperidin-3-yl)-6-fluoro-1-oxoisoindolin-5-yl)pyrrolidin-3-yl)methyl)piperidin-4-yl)phenyl)amino)-3-(piperidin-1-yl)-1,2,4-triazine-6-carboxamide]
< 10 | NC(=O)c1nnc(N2CCC[C@@H](O)C2)nc1Nc1ccc(C2CCN(CC3CCN(c4ccc5c(c4)C(=O)N(C4CCC(=O)NC4=O)C5=O)C3)CC2)cc1 (stereo partly drawn) [Compound 015, 5-((4-(1-((1-(2-(2,6-dioxopiperidin-3-yl)-1,3-dioxoisoindolin-5-yl)pyrrolidin-3-yl)methyl)piperidin-4-yl)phenyl)amino)-3-((R)-3-hydroxypiperidin-1-yl)-1,2,4-triazine-6-carboxamide]
< 10 | CC[C@H](Nc1nnc(C(N)=O)c(Nc2ccc(C3CCN(CC4CCN(c5ccc6c(c5)C(=O)N(C5CCC(=O)NC5=O)C6=O)C4)CC3)cc2)n1)C(N)=O (stereo partly drawn) [Compound 017, 3-(((S)-1-amino-1-oxobutan-2-yl)amino)-5-((4-(1-((1-(2-(2,6-dioxopiperidin-3-yl)-1,3-dioxoisoindolin-5-yl)pyrrolidin-3-yl)methyl)piperidin-4-yl)phenyl)amino)-1,2,4-triazine-6-carboxamide]
< 10 | CN1CCN(c2nnc(C(N)=O)c(Nc3ccc(C4CCN(CC5CCN(c6ccc7c(c6)C(=O)N(C6CCC(=O)NC6=O)C7=O)C5)CC4)cc3)n2)CC1 (stereo not shown) [Compound 018, 5-((4-(1-((1-(2-(2,6-dioxopiperidin-3-yl)-1,3-dioxoisoindolin-5-yl)pyrrolidin-3-yl)methyl)piperidin-4-yl)phenyl)amino)-3-(4-methylpiperazin-1-yl)-1,2,4-triazine-6-carboxamide]
